Structures can show the parent of a compound that is named as a salt.
Assays:
NR2B = NR2B (Homo sapiens, UniProt Q05586+Q13224); experiment: Functional activity (method not described); format: cell-based
HERG potassium channel = molecular target: T1, HERG potassium channel (Homo sapiens, UniProt Q12809); experiment: Dofetilide binding assay ([3H]-dofetilide competition, membranes of HEK-293 cells expressing the HERG product)
T1 construct: expressed in transfected cells; host or cells: HEK-293

NR2B subunit = molecular target: T2, NR2B subunit (Rattus norvegicus, UniProt P35439+Q00960); experiment: NR2B binding assay ([3H]-CP-98,113 competition, rat forebrain P2 membrane); settings: 5 nM [3H]-CP-98,113, rat forebrain P2 membrane
T2 construct: Membranes were prepared by homogenization of forebrain of male CD rats; from tissue; host or cells: rat forebrain P2 membrane
T2 sequence (Q00960 27-1482, other chains not shown): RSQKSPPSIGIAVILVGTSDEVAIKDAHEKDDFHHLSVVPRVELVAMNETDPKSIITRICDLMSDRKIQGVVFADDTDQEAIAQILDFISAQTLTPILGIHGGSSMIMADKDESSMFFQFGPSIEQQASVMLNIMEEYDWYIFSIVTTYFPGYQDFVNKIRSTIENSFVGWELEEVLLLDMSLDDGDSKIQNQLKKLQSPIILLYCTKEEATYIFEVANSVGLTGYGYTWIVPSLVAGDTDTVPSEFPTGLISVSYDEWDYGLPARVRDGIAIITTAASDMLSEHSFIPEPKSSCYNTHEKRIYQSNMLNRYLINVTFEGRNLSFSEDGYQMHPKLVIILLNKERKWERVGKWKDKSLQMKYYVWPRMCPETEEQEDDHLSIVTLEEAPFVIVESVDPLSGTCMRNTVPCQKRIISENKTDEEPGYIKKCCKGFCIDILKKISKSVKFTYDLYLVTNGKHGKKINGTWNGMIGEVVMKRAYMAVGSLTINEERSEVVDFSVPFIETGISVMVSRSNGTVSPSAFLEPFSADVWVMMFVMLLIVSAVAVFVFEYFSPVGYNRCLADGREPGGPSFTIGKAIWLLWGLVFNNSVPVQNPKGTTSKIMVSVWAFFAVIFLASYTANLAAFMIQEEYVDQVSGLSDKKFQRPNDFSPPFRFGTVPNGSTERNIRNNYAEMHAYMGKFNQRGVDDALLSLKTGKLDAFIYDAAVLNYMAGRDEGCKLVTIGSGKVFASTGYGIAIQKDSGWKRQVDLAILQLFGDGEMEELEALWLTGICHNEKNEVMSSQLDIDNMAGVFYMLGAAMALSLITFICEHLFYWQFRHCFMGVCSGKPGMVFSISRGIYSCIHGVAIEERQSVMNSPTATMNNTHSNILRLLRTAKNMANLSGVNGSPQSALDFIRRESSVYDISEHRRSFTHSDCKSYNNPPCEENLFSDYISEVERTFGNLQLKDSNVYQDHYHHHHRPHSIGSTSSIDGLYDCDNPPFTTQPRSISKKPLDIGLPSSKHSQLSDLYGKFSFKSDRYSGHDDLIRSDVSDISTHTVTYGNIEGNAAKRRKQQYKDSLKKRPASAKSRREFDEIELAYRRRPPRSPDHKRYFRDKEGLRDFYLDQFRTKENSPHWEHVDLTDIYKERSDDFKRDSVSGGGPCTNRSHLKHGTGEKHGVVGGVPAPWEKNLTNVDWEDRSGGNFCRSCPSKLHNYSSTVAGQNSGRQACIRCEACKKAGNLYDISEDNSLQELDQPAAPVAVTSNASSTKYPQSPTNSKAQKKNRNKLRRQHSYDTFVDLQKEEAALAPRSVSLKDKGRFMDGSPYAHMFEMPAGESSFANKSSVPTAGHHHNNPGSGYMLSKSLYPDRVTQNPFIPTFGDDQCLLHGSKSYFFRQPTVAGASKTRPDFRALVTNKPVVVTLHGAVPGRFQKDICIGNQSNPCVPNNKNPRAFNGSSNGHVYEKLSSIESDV
Method: The activity of the 3,4-dihydroquinolin-2(1H)-one compounds of the present invention, as NR2B antagonists, is determined by their ability to inhibit the binding of NR2B subunit at its receptor sites employing radioactive ligands.
The NR2B antagonist activity of the 3,4-dihydroquinolin-2(1H)-one compounds is evaluated by using the standard assay procedure described in, for example, J. Pharmacol., 331, pp117-126, 1997. […] More specifically, the assay is carried out as follows.
Membranes were prepared by homogenization of forebrain of male CD rats weighing between 170˜190 g by using glass-Teflon homogenizer in 0.32 M sucrose at 4° C. […]
For the saturation assay, receptor saturation was determined by incubating [^3H]-CP-98,113 and 50 μg protein of P2 membrane for 60 minutes at room temperature in a final 100 μl of incubation buffer (50 mM Tris HCl, pH7.4). Total and non-specific bindings (in the presence of 10 μM of unlabeled CP-98,113) were determined in a range of [^3H]-CP-98113 concentrations (0.625 nM to 60 nM). […]
For the competition assay, test compounds were incubated in duplicate with 5 nM [^3H]-CP-98,113 and 50 μg protein of P2 membrane for 60 minutes at room temperature in a final 100 μl of 50 mM Tris HCl buffer (pH7.4). Nonspecific binding was determined by 10 μM of unlabeled CP-98,113 (25 μl). […]

T1 sequence (Q12809 whole entry): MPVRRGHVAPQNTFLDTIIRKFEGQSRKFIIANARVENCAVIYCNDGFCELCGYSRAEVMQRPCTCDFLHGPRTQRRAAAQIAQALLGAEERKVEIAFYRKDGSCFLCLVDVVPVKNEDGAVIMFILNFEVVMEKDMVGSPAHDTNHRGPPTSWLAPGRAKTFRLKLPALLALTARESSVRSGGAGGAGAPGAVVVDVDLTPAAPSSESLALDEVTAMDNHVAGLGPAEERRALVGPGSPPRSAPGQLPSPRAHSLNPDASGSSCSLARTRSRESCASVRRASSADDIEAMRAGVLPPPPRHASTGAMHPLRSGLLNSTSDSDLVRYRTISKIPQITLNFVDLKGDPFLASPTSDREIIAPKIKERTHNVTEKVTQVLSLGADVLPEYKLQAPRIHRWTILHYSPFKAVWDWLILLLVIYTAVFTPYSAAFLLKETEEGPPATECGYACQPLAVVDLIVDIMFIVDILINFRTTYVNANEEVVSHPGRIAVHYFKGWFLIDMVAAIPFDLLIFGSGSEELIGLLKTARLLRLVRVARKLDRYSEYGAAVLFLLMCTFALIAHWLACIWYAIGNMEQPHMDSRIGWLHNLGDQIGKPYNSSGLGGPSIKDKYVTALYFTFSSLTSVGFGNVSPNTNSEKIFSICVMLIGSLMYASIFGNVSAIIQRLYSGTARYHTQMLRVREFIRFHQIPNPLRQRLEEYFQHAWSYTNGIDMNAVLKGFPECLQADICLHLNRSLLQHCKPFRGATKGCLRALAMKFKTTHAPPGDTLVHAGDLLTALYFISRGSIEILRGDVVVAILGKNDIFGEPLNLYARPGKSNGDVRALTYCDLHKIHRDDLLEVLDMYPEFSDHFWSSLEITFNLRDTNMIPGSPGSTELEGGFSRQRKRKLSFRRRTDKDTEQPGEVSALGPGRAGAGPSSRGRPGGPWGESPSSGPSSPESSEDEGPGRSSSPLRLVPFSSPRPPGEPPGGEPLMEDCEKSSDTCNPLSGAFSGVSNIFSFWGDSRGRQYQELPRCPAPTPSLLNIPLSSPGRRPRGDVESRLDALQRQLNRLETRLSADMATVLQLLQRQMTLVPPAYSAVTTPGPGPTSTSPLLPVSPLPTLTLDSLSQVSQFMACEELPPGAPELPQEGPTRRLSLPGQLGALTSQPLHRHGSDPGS
Sequence of NR2B (Q13224 27-1484, species assumed, other chains not shown): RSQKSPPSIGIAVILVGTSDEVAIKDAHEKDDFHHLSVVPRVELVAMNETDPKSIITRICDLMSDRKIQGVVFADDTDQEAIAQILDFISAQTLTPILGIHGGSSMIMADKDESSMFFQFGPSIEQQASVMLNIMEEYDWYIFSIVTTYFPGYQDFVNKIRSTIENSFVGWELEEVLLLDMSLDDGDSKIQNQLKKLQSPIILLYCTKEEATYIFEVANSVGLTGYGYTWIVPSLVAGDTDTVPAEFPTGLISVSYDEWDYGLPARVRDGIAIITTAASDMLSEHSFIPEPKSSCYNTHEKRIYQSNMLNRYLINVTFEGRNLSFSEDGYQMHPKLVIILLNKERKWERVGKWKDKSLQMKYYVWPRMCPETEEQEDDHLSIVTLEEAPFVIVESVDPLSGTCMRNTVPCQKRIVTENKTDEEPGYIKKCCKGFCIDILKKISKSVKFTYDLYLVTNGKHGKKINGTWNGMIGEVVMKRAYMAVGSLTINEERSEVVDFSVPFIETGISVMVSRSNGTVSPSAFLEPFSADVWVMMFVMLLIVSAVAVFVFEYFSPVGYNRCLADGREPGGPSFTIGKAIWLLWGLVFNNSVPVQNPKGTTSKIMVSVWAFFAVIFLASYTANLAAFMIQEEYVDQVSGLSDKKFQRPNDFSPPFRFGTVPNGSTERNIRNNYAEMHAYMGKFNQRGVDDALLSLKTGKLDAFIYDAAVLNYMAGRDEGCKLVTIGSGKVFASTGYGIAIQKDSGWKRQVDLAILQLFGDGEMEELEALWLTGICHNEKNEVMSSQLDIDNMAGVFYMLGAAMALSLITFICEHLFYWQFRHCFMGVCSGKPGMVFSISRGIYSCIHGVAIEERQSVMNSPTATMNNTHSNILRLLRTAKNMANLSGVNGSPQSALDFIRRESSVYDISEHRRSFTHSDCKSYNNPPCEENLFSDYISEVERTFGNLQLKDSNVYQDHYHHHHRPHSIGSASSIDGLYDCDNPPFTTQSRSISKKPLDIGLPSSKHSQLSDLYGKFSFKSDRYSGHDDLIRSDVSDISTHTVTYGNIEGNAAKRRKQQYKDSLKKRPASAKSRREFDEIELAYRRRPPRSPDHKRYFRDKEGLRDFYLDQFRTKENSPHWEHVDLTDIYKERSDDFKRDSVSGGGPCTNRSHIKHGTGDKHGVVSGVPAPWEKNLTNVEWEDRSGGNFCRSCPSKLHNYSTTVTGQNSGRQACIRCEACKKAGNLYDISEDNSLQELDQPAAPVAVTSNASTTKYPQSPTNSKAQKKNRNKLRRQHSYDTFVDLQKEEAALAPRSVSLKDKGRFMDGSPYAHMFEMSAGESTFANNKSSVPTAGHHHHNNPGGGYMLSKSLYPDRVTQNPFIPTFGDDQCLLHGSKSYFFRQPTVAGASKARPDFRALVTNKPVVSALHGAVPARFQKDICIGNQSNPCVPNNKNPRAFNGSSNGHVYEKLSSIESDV

melting point	Structure (SMILES)	IC50 (NR2B) [µM]	Ki (NR2B subunit) [µM]	further results
	C[C@H]([C@H](O)c1ccc2c(c1)CCC(=O)N2)N1CCC(O)(c2ccccc2)CC1	0.0224		
	O=C1CCc2cc([C@@H](O)CN3CCC(O)(c4cccc(F)c4)CC3)ccc2N1	0.0119	0.0035	Ki (HERG potassium channel; 5 nM [3H]-dofetilide, HERG homogenate of HEK-293 cells): 8.3 µM; TI (Defetilide/NR2B) (HERG potassium channel; TI = Dofetilide Binding Ki [μM]/NR2B Binding Ki [nM] x 1000): 2400
246.9 °C	COc1cccc(C2(O)CCN(CC(O)c3ccc4c(c3)CCC(=O)N4)CC2)c1 (stereo not drawn) (as salt: hydrochloride) [Example 2, 6-{1-Hydroxy-2-[4-hydroxy-4-(3-methoxyphenyl)-1-piperidinyl]ethyl}-3,4-dihydroquinolin-2(1H)-one Hydrochloride]			
98 to 100 °C (dec.)	Cc1cccc(C2(O)CCN(CC(O)c3ccc4c(c3)CCC(=O)N4)CC2)c1 (stereo not drawn) (as salt: mesylate) [Example 4, 6-[1-Hydroxy-2-[4-hydroxy-4-(3-methylphenyl)piperidin-1-yl]ethyl]-3,4-dihydroquinolin-2(1H)-one mesylate]			
	C[C@H]([C@H](O)c1ccc2c(c1)CCC(=O)N2)N1CCC(O)(c2ccc(F)cc2)CC1 [reference compound]		0.007	

Structure (SMILES)	melting point	IC50 (NR2B) [µM]	Ki (NR2B subunit) [µM]	further results
CS(=O)(=O)O.O=C1CCc2cc([C@@H](O)CN3CCC(O)(c4cccc(F)c4)CC3)ccc2N1	180 to 182 °C			
